Source: patent US10329542B2, “HBV RNAse H purification and enzyme inhibitors” (Saint Louis University, priority 2012, dated 2019)

How the values were obtained:
[1] = molecular target: T1, human RNAseH1 (Homo sapiens, UniProt O60930); experiment: Oligonucleotide-directed RNAseH assay, recombinant human RNAseH1; type: biochemical; settings: class by concentration giving inhibition (10, 20, 60 μM)
T1 construct: hexahistidine (N); made in house; host or cells: E. coli BL21 codon+
T1 sequence (O60930 1-286): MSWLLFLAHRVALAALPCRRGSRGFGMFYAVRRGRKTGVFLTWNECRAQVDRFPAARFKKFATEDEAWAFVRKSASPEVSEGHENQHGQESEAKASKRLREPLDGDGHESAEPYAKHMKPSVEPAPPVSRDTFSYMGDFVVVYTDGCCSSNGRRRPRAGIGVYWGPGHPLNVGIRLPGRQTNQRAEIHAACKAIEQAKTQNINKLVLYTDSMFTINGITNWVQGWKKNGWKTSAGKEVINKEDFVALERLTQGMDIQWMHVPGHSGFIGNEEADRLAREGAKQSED
Protocol: For the oligonucleotide-directed RNAseH cleavage assay (Gong et al., 2001), 6 μl protein extract (typical protein concentration 2.8 mg/ml) was mixed with 0.5 μg internally ^32P-labeled DRF+ RNA (nucleotides 2401-2605 of the duck HBV genome plus 60 nucleotides of flanking sequences from pBluescript) and 3 μg oligonucleotide D2507- or its corresponding negative control D2526+ on ice in 20 μl under the conditions in Table 1. Some reactions in FIG. 5 employed oligonucleotide D2543M-Sal or its D2453+ negative control as indicated. The reactions were incubated at 42° C. for 90 min. and terminated by addition of Laemmli protein loading buffer and boiling. The samples were resolved by 12% SDS-PAGE, the gels were stained with Coomassie blue to monitor protein loading, and labeled RNA was detected by autoradiography. Candidate inhibitors were dissolved in DMSO and added at the indicated concentrations during assembly of the reactions. Control reactions lacking the compounds contained DMSO as a vehicle control. The RNAseH autoradiograms were scanned and quantified with ImageJ. The oligonucleotides were: D2526+([…]; SEQ ID NO:8), D2507-([…]; SEQ ID NO:9), D2453+([…]; SEQ ID NO:10), and D2543M-Sal ([…]; SEQ ID NO:11).
Therefore, the inventors cloned the human RNAseH1 with an N-terminal hexahistidine tag, expressed it in E. coli, and purified the protein by nickel affinity chromatography. […] This enzyme was active in the oligonucleotide-directed and fluorescent RNAseH assays (FIG. 10B and data not shown). To determine how inhibition of human RNAseH1 compared to inhibition of the HBV RNAseH, the inventor titrated the RNAaseH1 enzyme to yield similar levels of activity as the HBV enzyme, and then the inventor directly compared the ability of compounds #8-12 to inhibit human RNAseH1 and HRHPL at 10 μM. […] Therefore, it is possible to inhibit the HBV RNAseH without inhibiting human RNAseH1.
(§1) Oligonucleotide-directed RNAseH cleavage assays (Gong et al., 2001) were performed as described (Tavis et al., 2013). Briefly, HBV RNAseH extracts were mixed with a 264 nt-long internally ^32P-labeled RNA plus an excess of a complementary DNA oligonucleotide or its inverse-complement as a negative control in a final concentration of 65 mM Tris pH 8.0, 190 mM NaCl, 5 mM MgCl2, 5 mM dTT, 0.05% NP40, and 6% glycerol. βTJ was dissolved in DMSO and added at the indicated concentrations; the final concentration of DMSO in all reactions was 1%. The reactions were incubated at 42° C. for 90 min. and terminated by addition of Laemmli protein electrophoresis buffer. The samples were resolved by SDS-PAGE, labeled RNA was detected by autoradiography, the autoradiograms were scanned, and the RNA cleavage products were quantified with ImageJ (National Institutes of Health). IC50 values were calculated by non-linear regression using GraphPad Prism (GraphPad Software, Inc.).

[2] = molecular target: T2, HBV genotype D RNAseH (HRHPL) (Hepatitis B virus genotype D subtype ayw, UniProt P03156, INS679M); experiment: Oligonucleotide-directed RNAseH cleavage assay, HBV genotype D; type: biochemical; settings: for Activity vs. HBV Biochemical vs. gtD: class by concentration giving inhibition (10, 20, 60 μM)
T2 construct: HRHPL contains HBV genotype D (Genbank V01460) polymerase residues 684-845; made in house; host or cells: E. coli BL21 codon+
Protocol: For the oligonucleotide-directed RNAseH cleavage assay (Gong et al., 2001), 6 μl protein extract (typical protein concentration 2.8 mg/ml) was mixed with 0.5 μg internally ^32P-labeled DRF+ RNA (nucleotides 2401-2605 of the duck HBV genome plus 60 nucleotides of flanking sequences from pBluescript) and 3 μg oligonucleotide D2507- or its corresponding negative control D2526+ on ice in 20 μl under the conditions in Table 1. Some reactions in FIG. 5 employed oligonucleotide D2543M-Sal or its D2453+ negative control as indicated. The reactions were incubated at 42° C. for 90 min. and terminated by addition of Laemmli protein loading buffer and boiling. The samples were resolved by 12% SDS-PAGE, the gels were stained with Coomassie blue to monitor protein loading, and labeled RNA was detected by autoradiography. Candidate inhibitors were dissolved in DMSO and added at the indicated concentrations during assembly of the reactions. Control reactions lacking the compounds contained DMSO as a vehicle control. The RNAseH autoradiograms were scanned and quantified with ImageJ.
as §1

[3] = test system: HBV; experiment: HBV genomic replication assays (Table 2); type: cell-based, Hepatitis B virus; settings: class by active concentration
Protocol: Huh7 cells were maintained in Dulbecco's modified Eagle's medium with 10% fetal bovine serum at 37° C. in 5% CO2. Cells were seeded into 60 mm dishes and transfected at 70% confluency with 2.6 μg of plasmids using TransIT-LT1 (Mirus, Inc.). Test compounds were added the morning following transfection at 10 or 50 μM, and fresh medium containing the compounds was provided every 1-2 days. Four or five days post-transfection HBV cores were isolated by lysis of the cells in 10 mM Tris pH 7.5, 1 mM EDTA, 0.25% NP40, 50 mM NaCl, and 8% sucrose followed by sedimentation through a 30% sucrose cushion as described (Travis, et al., 1998). Viral DNAs were isolated from cytoplasmic core particle preparations by proteinase K digestion followed by phenol/chloroform extraction as described (Gong et al., 2001). Duplicate aliquots of the nucleic acids were treated with 2 U E. coli DNAse-free RNAseH (Invitrogen) at 37° C. for 30 min. or were mock treated. The nucleic acid samples were resolved by electrophoresis on 1.2% agarose gels and detected by Southern blotting with ^32P-labeled HBV DNA as a probe. […]

T2 sequence (P03156 680-832, added parts left off, stated change not applied): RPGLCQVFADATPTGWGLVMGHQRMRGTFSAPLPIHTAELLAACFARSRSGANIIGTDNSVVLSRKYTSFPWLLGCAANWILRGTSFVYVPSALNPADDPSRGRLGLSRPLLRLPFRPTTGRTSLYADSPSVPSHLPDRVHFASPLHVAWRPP

Structure (SMILES) | Activity vs. human RNAseH1 [1] | Activity vs. HBV Biochemical vs. gtD [2] | also measured
O=C(Nc1ccc(O)c(=O)cc1)c1ccccc1 [Compound 52] | − (− no inhibition at 60 μM) | − (− no inhibition at 60 μM) | 
CCN1C[C@H](C)n2c(c(O)c3c(=O)n(Cc4ccc(F)c(Cl)c4)nc(C(=O)NC)c32)C1=O [Compound 74, reference compound] |  | − (− no inhibition at 60 μM) | 
CC(=O)NC(CCc1ccc(Cl)c(Cl)c1)c1cccc(O)c(=O)c1 (stereo not drawn) [Compound 55] | + (+ inhibition at 60 μM) | + (+ inhibition at 60 μM) | 
Cc1ccc(S(=O)(=O)Oc2cccccc2=O)cc1 [Compound 61] | ++ (++ inhibition at 20 μM) | − (− no inhibition at 60 μM) | 
CC1COc2c(N3CCN(C)CC3)c(F)cc3c(=O)c(C(=O)O)cn1c23 (stereo not drawn) [Compound 68] |  | − (− no inhibition at 60 μM) | 
CCOC(=O)c1sc(NC(=O)CSc2nnc[nH]2)c(C#N)c1C [Compound 28] | + (+ inhibition at 60 μM) | − (− no inhibition at 60 μM) | 
CCOC(=O)c1sc(NC(=O)CSc2nccc(C)n2)c(C#N)c1C [Compound 27] |  | − (− no inhibition at 60 μM) | 
N#Cc1c(NC(=O)CSc2nnc(Cc3ccccc3)o2)sc2c1CCCC2 [Compound 25] |  | − (− no inhibition at 60 μM) | 
O=c1cccccc1Cl [Compound 57, 2-chlorotropone] |  | − (− no inhibition at 60 μM) | 
O=C(O)c1cn(C2CC2)c2cc(Cl)c(F)cc2c1=O [Compound 66] |  | − (− no inhibition at 60 μM) | 
CCn1cc(C(=O)O)c(=O)c2cc3c(cc21)OCO3 [Compound 65] |  | − (− no inhibition at 60 μM) | 
CC(C)=CCc1ccc(O)c(=O)cc1C(C)C [Compound 49, Nootkatin] | − (− no inhibition at 60 μM) | ++ (++ inhibition at 20 μM) | 
CCOC(=O)c1cc2ccccc2n(O)c1=O [Compound 42] | + (+ inhibition at 60 μM) | − (− no inhibition at 60 μM) | 
O=Nc1ccc(O)c(=O)cc1 [Compound 50, 5-nitrosotropolone] | − (− no inhibition at 60 μM) | ++ (++ inhibition at 20 μM) | Activity vs. HBV Genomic Replication [3]: + (+, activity detectable at >10 μM)
CCOC(=O)c1sc(NC(=O)CSc2nnc(-c3ccc(Cl)cc3)o2)c(C#N)c1C [Compound 24] |  | − (− no inhibition at 60 μM) | 
Cc1cc(C(F)(F)F)c(C#N)c(=O)[nH]1 [Compound 19] |  | − (− no inhibition at 60 μM) | 

Structure (SMILES) | Activity vs. human RNAseH1 [1] | Activity vs. HBV Biochemical vs. gtD [2] | also measured
Cc1cc(C)c(OC(=O)c2ccc(Cl)cc2)c(=O)c(C)c1 [Compound 59] | + (+ inhibition at 60 μM) | − (− no inhibition at 60 μM) | 
Cc1cc(C2CCCCC2)n(O)c(=O)c1 [Compound 41, Ciclopirox, reference compound] | + (+ inhibition at 60 μM) | − (− no inhibition at 60 μM) | 
O=c1ccccc(Br)c1O [Compound 54, 3-bromotropolone] |  | − (− no inhibition at 60 μM) | 
Cc1ccc2oc(=O)c(C#N)c(C)c2c1 [Compound 33] |  | − (− no inhibition at 60 μM) | 
O=C(Oc1cccccc1=O)c1ccc([N+](=O)[O-])cc1 [Compound 51, tropolone p-nitrobenzoate] |  | + (+ inhibition at 60 μM) | 
O=C(Oc1cccccc1=O)c1ccccc1 [Compound 62] |  | + (+ inhibition at 60 μM) | 
N#Cc1cc2ccccc2oc1=N [Compound 21] |  | − (− no inhibition at 60 μM) | 
N#Cc1c(NC(=O)CSc2nnc(C3CC3)o2)sc2c1CCC2 [Compound 32] |  | − (− no inhibition at 60 μM) | 
Cn1c(C(C)(C)N)nc(C(=O)NCc2ccc(F)cc2)c(O)c1=O [Compound 77, reference compound] |  | − (− no inhibition at 60 μM) | 
Cc1cc(C)n(O)c(=O)c1C#N [Compound 44] | − (− no inhibition at 60 μM) | − (− no inhibition at 60 μM) | 
CCn1cc(C(=O)O)c(=O)c2ccc(C)nc21 [Compound 70] |  | − (− no inhibition at 60 μM) | 
O=C(Oc1cccccc1=O)c1ccc(Cl)cc1 [Compound 63] |  | − (− no inhibition at 60 μM) | 
CCOC(=O)c1sc(NC(=O)CSc2ccc(Cl)cc2)c(C#N)c1C [Compound 37] |  | − (− no inhibition at 60 μM) | 
CC(C)S[C@@H]1O[C@H](CO)[C@H](O)[C@H](O)[C@H]1O [IPTG, reference compound] |  |  | RNAseH activity of HRHPL relative to the DMSO vehicle control ([2]; irrelevant compounds at 10 μM, pooled): 52±9%
CCOC(=O)c1sc(NC(=O)CSc2nc(C)cc(-c3ccccc3)n2)c(C#N)c1C [Compound 26] |  | − (− no inhibition at 60 μM) | 
